According to patent US20110020312A1, “METHODS FOR TREATMENT OF METABOLIC DISORDERS USING EPIMETABOLIC SHIFTERS, MULTIDIMENSIONAL INTRACELLULAR MOLECULES, OR ENVIRONMENTAL INFLUENCERS” (priority 2009, published 2011):

Columns and labels:
[1] = test system: HepG2 (liver cancer) cells; assay: PCR Apoptosis Array; type: cell-based
Caspase 3 = assay: Western blot, Caspase 3 levels; type: cell-based, human
Protocol: The blots were stripped by incubating for 30 minutes with methanol, followed by two 10 minute washes with TBS-T, then 30 minutes of incubation with Stripping buffer at 50 deg C., and followed by two washes with 100 ml or more of TBS-T for 30′ each. The 2 blots were scanned in laser scanner to check for complete stripping. The blots were activated with methanol for 5 seconds, washed with water for 5 minutes, and TBST for 15 minutes. The blots were blocked for 1 hour with 5% blocking reagent in TBS-T at room temperature and then washed 3 times with TBS-T (1×-15′; 2×5′ each) and probed with the antibody for Caspase 3 in 5% BSA (Santacruz Biotechnology # sc7272) at 1:200 dilutions) overnight at 4 deg C. with shaking. After the overnight incubation with primary antibody for Caspase 3, the membranes were washed 3 times with TBS-T (1×-15′; 2×5′ each) and probed with the secondary antibody (antimouse; 1:10,000 dilution) for 1 h on the orbital tilting shaker at room temperature. After 1 h of incubation with secondary antibodies, the blots were washed 3 times with TBS-T (1×-15′; 2×5′ each) and then incubated with ECF reagent for 5 minutes and then each blot scanned with 5100 Fuji Laser scanner at 25 uM resolution, 16 bit, green laser, at 400V and at 500 V.
The samples were processed and the gels were run, transferred, stained and scanned essentially as described above.
The levels of Caspase 3 and actin were determined by probing the blots successively with primary antibodies for Caspase 3 and actin, essentially as described above.
The Actin blots were stripped by incubating for 30 minutes with methanol, followed by two 10 minute washes with TBS-T, then 30 minutes of incubation with Stripping buffer at 50 deg C., and followed by two washes with 100 ml or more of TBS-T for 30′ each. The blots were scanned in laser scanner to check for complete stripping. The blots were activated with methanol for 5 seconds, washed with water for 5 minutes, and TBST for 15 minutes. The blots were blocked for 1 hour with 5% blocking reagent in TBS-T at room temperature and then washed 3 times with TBS-T (1×-15′; 2×5′ each) and probed with the primary antibody for Hif 1 alpha, Caspase 3 or PDHB in 5% BSA (at 1:200 by incubation overnight at 4 deg C. with gentle shaking. The primary antibody for Hif 1 alpha (Abcam ab2185; antirabbit) was at 1:500 dilution in 5% BSA. The primary antibody for Caspase 3 (Santacruz sc7272; antirabbit) was at 1:200 dilution in 5% BSA. The primary antibody for Pyruvate Dehydrogenase beta (PDHB) (Novus Biologicals H00005162-M03; antimouse) was at 1:500 dilution in 5% BSA. After incubation with primary antibodies, the membranes were washed 3 times with TBS-T (1×-15′; 2×5′ each) and probed with the secondary antibody (PDHB antimouse; Hif 1a and Caspase 3 antirabbit; 1:10,000 dilution) for 1 h at room temperature. After 1 h of incubation with secondary antibodies, the blots were washed 3 times with TBS-T (1×-15′; 2×5′ each) and then incubated with ECF reagent for 5 minutes and then each blot scanned with 5100 Fuji Laser scanner at 25 uM resolution, 16 bit, green laser, at 400V and at 500 V.
The Actin blots were stripped by incubating for 30 minutes with methanol, followed by two 10 minute washes with TBS-T, then 30 minutes of incubation with Stripping buffer at 50 deg C., and followed by two washes with 100 ml or more of TBS-T for 30′ each. The blots were activated with methanol for 5 seconds, washed with water for 5 minutes, and TBST for 15 minutes. The blots were blocked for 1 hour with 5% blocking reagent in TBS-T at room temperature and then washed 3 times with TBS-T (1×-15′; 2×5′ each) and probed with the primary antibody for Caspase 3 or MMP-6 in 5% BSA by incubation overnight at 4 deg C. with gentle shaking. The primary antibody for Caspase 3 (Abcam ab44976-100; antirabbit) was at 1:500 dilution in 5% BSA. The primary antibody for MMP-6 (Santacruz scMM0029-ZB5; antimouse) was at 1:100 dilution in 5% BSA. […]

[2] = test system: MCF-7 breast cancer cells; assay: Oxygen consumption rate (OCR), SeaHorse XF analyzer; type: cell-based; conditions: absence and presence of stressors (FIG. 31)
Source text: (§1) Environmental influencers (e.g., MIMs or Epi-shifters) may also be identified by changes in cellular energetics. One example of the measurement of cellular energetics are the real-time measures of the consumption of molecular oxygen and/or the change in pH of the media of a cell culture. For example, the ability of a potential epi-shifter to modulate the metabolic state of a cell may be analyzed using, for example, the XF24 Analyzer (Seahorse, Inc.). This technology allows for real time detection of oxygen and pH changes in a monolayer of cells in order to evaluate the bioenergetics of a cell microenvironment. The XF24 Analyzer measures and compares the rates of oxygen consumption (OCR), which is a measure of aerobic metabolism, and extracellular acidification (ECAR), which is a measure of glycolysis, both key indicators of cellular energetics.
(§2) (SeaHorse Biosciences Inc, North Billerica, Mass.).
(§3) In contrast, cancer cells (e.g., MCF-7, PaCa-2) are inherently primed to culture at higher levels of glucose compared to normal cells due to their glycolytic phenotype for maintenance in culture.

[3] = test system: PaCa-2 pancreatic cancer cells; assay: as above; type: cell-based; conditions: absence and presence of stressors (FIG. 32)
Source text: as §1, §2, §3

COC1=C(OC)C(=O)C(C/C=C(\C)CC/C=C(\C)CC/C=C(\C)CC/C=C(\C)CC/C=C(\C)CC/C=C(\C)CC/C=C(\C)CC/C=C(\C)CC/C=C(\C)CCC=C(C)C)=C(C)C1=O [Q10, Coenzyme Q10]
BAG1 mRNA downregulated over control ([1]; 100 uM Q10, 16 hours): approximately 6 fold | CASP9 mRNA upregulated over control ([1]; 100 uM Q10, 16 hours): approximately 61 fold | TNFRSF1A mRNA downregulated over control ([1]; 100 uM Q10, 16 hours): ~4 fold | BAG1 mRNA upregulated over control ([1]; 100 uM Q10, 48 hours): ~1 fold | CASP9 mRNA upregulated over control ([1]; 100 uM Q10, 48 hours): approximately 55 fold | TNFRSF1A mRNA upregulated over control ([1]; 100 uM Q10, 48 hours): ~1 fold | Caspase 3 Normalized Volume (Caspase 3; HASMC, 5g48-50): 766 | Caspase 3 Normalized Volume (Caspase 3; HASMC, 5g48-100): 669 | Caspase 3 Normalized Volume (Caspase 3; HASMC, 22G24-50): 835 | Caspase 3 Normalized Volume (Caspase 3; HASMC, 22G24-100): 865 | Caspase 3 Normalized Volume (Caspase 3; HASMC, 22G48-50): 639 | Caspase 3 Normalized Volume (Caspase 3; HASMC, 22G48-100): 624 | Caspase 3 Normalized Volume as a % (Caspase 3; HepG2, 5g24-50, 2 Experiments): 108% | Caspase 3 Normalized Volume as a % (Caspase 3; HepG2, 5g24-100, 2 Experiments): 176% | Caspase 3 Normalized Volume as a % (Caspase 3; HepG2, 5g48-50, 2 Experiments): 144% | Caspase 3 Normalized Volume as a % (Caspase 3; HepG2, 5g48-100, 2 Experiments): 95% | Caspase 3 Normalized Volume as a % (Caspase 3; HepG2, 22G24-50, 2 Experiments): 139% | Caspase 3 Normalized Volume as a % (Caspase 3; HepG2, 22G24-100, 2 Experiments): 178% | Caspase 3 Normalized Volume as a % (Caspase 3; HepG2, 22G48-50, 2 Experiments): 150% | Caspase 3 Normalized Volume as a % (Caspase 3; HepG2, 22G48-100, 2 Experiments): 145% | Caspase 3 Normalized Volume (Caspase 3; PACA2, 5g-50, 24 h): 325 | Caspase 3 Normalized Volume (Caspase 3; PACA2, 5g-50, 48 h): 701 | Caspase 3 Normalized Volume (Caspase 3; PACA2, 5g-100, 24 h): 374 | Caspase 3 Normalized Volume (Caspase 3; PACA2, 5g-100, 48 h): 291 | Caspase 3 Normalized Volume (Caspase 3; PACA2, 22G-50, 24 h): 675 | Caspase 3 Normalized Volume (Caspase 3; PACA2, 22G-50, 48 h): 497 | Caspase 3 Normalized Volume (Caspase 3; PACA2, 22G-100, 24 h): 842 | Caspase 3 Normalized Volume (Caspase 3; PACA2, 22G-100, 48 h): 559 | levels of caspase 3 (Caspase 3; cancer cells): increased | expression of Caspase-3 (Caspase 3; normal cells): moderately decreased | OCR values [2]: consistent reduction | OCR values [3]: consistent reduction
